From patent US11458205B2, “Genetically encoded intrinsically disordered stealth polymers for delivery and methods of using same” (Duke University, priority 2015, dated 2022) come the findings set out here.

Molecules are shown by their SMILES.

The subject of this assay is MDA-MB-231 human triple negative breast cancer cells. Kind of assay: In vitro cytotoxicity (MTS) of ZiPP-PTX conjugates. Format: cell-based. The following applies: MDA-MB-231, 72 hours of drug treatment, concentration in terms of the drug, read-out: IC50 (concentration of the drug that reduced cell viability by 50%). As for the experimental part:
In vitro cytotoxicity of ZiPP-PTX conjugates. In vitro cytotoxicity was done on MDA-MB-231 human triple negative breast cancer cells. 3×10^3 cells were seeded per 100 μL of media in Falcon™ 96-well cell culture plates (BD; Franklin Lakes, N.J.). The cells were allowed to adhere for 16-18 hours before being treated with free PTX and ZiPP-PTX at concentrations that ranged from sub-nanomolar to high-micromolar range. After 72 hours of drug treatment, 20 μL of […] (MTS) reagent (CellTiter 96 AQueous™ Promega; Madison, Wis.) was added to each well and incubated for an additional 2 hours. A dose-response curve for free drug and ZiPP-drug conjugate was constructed by measuring the absorbance of each well at 490 nm with a Victor3 microplate reader (Perkin Elmer; Waltham, Mass.). The 50% inhibitory concentration, IC50, was determined by fitting data to the following equation (Andrew MacKay, J., et al. Nat. Mater. 2009, 8, 993-999):
[formula] where V is viability of cells, Ctreatment is drug concentration, and p is slope of the dose response curve. This IC50 value is used to evaluate the potency of the conjugates.
The in vitro cytotoxicity of Zipp-PTX was measured by looking at the cell viability over a range of concentrations as a function of time. […]

As to `CC(=O)O[C@H]1C(=O)[C@@]2(C)[C@H]([C@H](OC(=O)c3ccccc3)[C@]3(O)C[C@H](OC(=O)[C@H](O)[C@@H](NC(=O)c4ccccc4)c4ccccc4)C(C)=C1C3(C)C)[C@]1(OC(C)=O)CO[C@@H]1C[C@@H]2O` [free drug, Paclitaxel], the IC50 is approximately 2 nM.
